Experimental data reported in patent USRE50049E1, “Compositions and methods for treating psoriasis” (SYMBIONYX PHARMACEUTICALS INC, priority 2015, dated 2024).
“Also recorded” adds a separate entry of the source. Counter-ions that a name gives are not always drawn. Like-named read-outs stand apart in the source and are kept apart here.

Key:
[1] = tested on: TNF α-treated human dermal fibroblasts (HDF); experiment: PCR gene expression in TNF α-treated human dermal fibroblasts; assay type: cell-based; conditions: 24 hours, TNF-alpha 10 ng/ml
[2] = cited from earlier work
[3] = tested on: psoriasiform keratinocytes (epidermal keratinocyte progenitors incubated with IL-17A/IL-22/TNFα); experiment: DNA microarray gene expression in psoriasiform keratinocyte cultures; assay type: cell-based, human; conditions: IDMF added after 24 h cytokine treatment, further 24 h
Description: Psoriasiform keratinocyte cultures were established by incubating epidermal keratinocyte progenitors from stratum basae (Zen-Bio, RTP, NC) with IL-17A/IL-22/TNFα ([…]) for 24 h. These cytokines have been reported to be key triggers in psoriasis (Y Tokura, T Mori, R Hino, Psoriasis and other Th17-mediated skin diseases. J UOEH, 32(4):317-328, 2010; A B Van Belle, M de Heusch, M M Lemaire, E Hendrickx, G Wamier, K Dunussi-Joannopoulos, L A Fouser, J C Renauld, L Dumoutier, IL-22 is required for imiquimod-induced psoriasiform skin inflammation in mice, J Immunol, 188(1):462-469, 2012; A Hänsel, C Günther, J Ingwersen, J Starke, M Schmitz, M Bachmann, M Meurer, E P Rieber, K Schäkel, Human slan (6-sulfo LacNAc) dendritic cells are inflammatory dermal dendritic cells in psoriasis and drive strong TH17/TH1 T-cell responses, J Allergy Clin Immunol, 127(3):787-794, 2011; Kim J, Krueger J G. The Immunopathogenesis of Psoriasis, Dermatol Clin, 33:13-23, 2015). […]
After 24 h of cytokine treatment, the IDMF test materials were added to cells and further incubation with IL-17A/IL-22/TNFα was pursued for another 24 h. At the end of the experiment total RNA was extracted from keratinocytes and quantified using DNA microarrays. […]

[4] = tested on: stratum granulosum (StGrm) coverage of mouse tail epidermis; experiment: Murine tail model of psoriasis; assay type: in vivo; conditions: 2 weeks of application
Description: The mouse tail test is a well-established animal model used for the development of FDA-approved anti-psoriasis drugs. Table 6 summarize the findings following 2 weeks of test material application on the tails, with the readout of improvement in stratum granulosum (StGrm) coverage +/− side effects.
The arrow in each photomicrograph points to the StGrm (stratum granulosum), which, as noted, is minimal in the control.

[5] = tested on: 3T3; experiment: 3T3 Neutral Red Uptake Phototoxicity Assay; assay type: cell-based; conditions: even at the maximum concentration required for testing (100 μg/ml)
Description: The 3T3 Neutral Red Uptake Phototoxicity Assay was based on the OECD Guideline for Testing of Chemicals: […], with chlorpromazine and tazarotene as positive controls.

[6] = tested on: S. typhimurium TA1535; conditions: % of mutant colonies spontaneously occurring in water control
[7] = tested on: S. typhimurium TA1537; conditions: % of mutant colonies spontaneously occurring in water control
[8] = tested on: skin of healthy adult volunteers; experiment: Human repeat insult patch test (HRIPT); conditions: IDMF 2% and 5% in butylene glycol/glycerin base
[9] = tested on: S. typhimurium (TA1535, TA1537); experiment: AMES genotoxicity testing, overall conclusion (TA1535, TA1537); conditions: including at the highest concentration required for testing (5 mg/ml)
[10] = primary metabolite after oral administration of dimethyl fumarate; cited from earlier work
[11] = Lammintausta et al., Contact Dermatitis 2010; cited from earlier work
[12] = mouse tail, IDMF 2%, Tazorac 0.1% tazarotene

In the case of COC(=O)/C=C/C(=O)OC [DMF, Dimethyl fumarate, reference compound], the NFKB expression ([1]; DMF 5 μg/ml) is given as “decreased” and the protein binding [2] is given as “does not display protein binding”.

With COC(=O)/C=C/C(=O)OC1COC2C(OC(=O)/C=C/C(=O)OC)COC12 (centres unmarked) [IDMF, isosorbide di-(methylfumarate)] the “TNFα/IFNγ/IL-17 responses (DNA microarray)” value [3] was “significant inhibition”, the “antioxidant pathways, especially those related to glutathione (DNA microarray)” value [3] was “upregulated” and the “Tail observations: epidermal thickness” value ([4]; mouse tail, IDMF 2% in butylene glycol/glycerin, Tazorac 0.1% tazarotene, control 3-4 layers) was “thickness (4-5 layers),”. The “Tail observations: granular layer (StGrm)” value [4, 12] was “significant extension of StGrm coverage; also recorded: extended granular layer”, the “Tail observations: inflammatory (leukocyte) infiltrate” value [4, 12] was “no inflammation; also recorded: no inflammatory infiltrate,” and the “Tail observations: stratum corneum (StCr)” value [4, 12] was “normal basketwave StCr,”. For the same molecule, the StGrm expansion ([4]; mouse tail, control (no treatment) = 100, IDMF 2% in butylene glycol/glycerin, Tazorac 0.1% tazarotene, p < 0.0001) was 134 (p < 0.0001), the COX-2 expression ([1]; IDMF 1 μg/ml) was −2.4 fold and the IL8 expression ([1]; IDMF 1 μg/ml) was “did not increase”. For the same molecule, the NFKB expression ([1]; IDMF 1 μg/ml) was “decreased”, the phototoxicity [5] was “not phototoxic” and the “% CTR (TA1535)” value ([6]; 8 μg/ml) was 96 % CTR. For the same molecule, the “% CTR (TA1535)” value ([6]; 40 μg/ml) was 89 % CTR, the “% CTR (TA1535)” value ([6]; 200 μg/ml) was 68 % CTR and the “% CTR (TA1535)” value ([6]; 1 mg/ml) was 64 % CTR. For the same molecule, the “% CTR (TA1535)” value ([6]; 5 mg/ml) was 18 % CTR, the “% CTR (TA1537)” value ([7]; 8 μg/ml) was 83 % CTR and the “% CTR (TA1537)” value ([7]; 40 μg/ml) was 117 % CTR. The “% CTR (TA1537)” value ([7]; 200 μg/ml) was 91 % CTR, the “% CTR (TA1537)” value ([7]; 1 mg/ml) was 30 % CTR and the “% CTR (TA1537)” value ([7]; 5 mg/ml) was 13 % CTR. For the same molecule, the “conclusion of the HRIPT study” value [8] was “non-sensitizing and non-irritating”, the “participants with score zero” value ([8]; 100 healthy adult volunteers) was 100% and the “skin sensitization/irritation score (scale 0-5)” value ([8]; 100 healthy adult volunteers) was 0. For the same molecule, the flushing ([8]; topical patch) was “no flushing was observed” and the “genotoxicity (AMES)” value [9] was “not genotoxic”.

In the case of COC(=O)/C=C/C(=O)O [MMF, monomethyl fumarate], the half-life [10] is given as 36 h, the “protein binding (bound)” value [2] is given as “approximately 50%” and the skin sensitization [11] is given as “known skin sensitizers”.

With CCOC(=O)c1ccc(C#Cc2ccc3c(c2)C(C)(C)CCS3)nc1 [tazarotene, reference compound] the “adverse effects in mouse tail test” value ([4]; positive control) was “substantial hyperkeratosis, spongiosis and wide-spread inflammation”.
